# From patent US10363257B2 (ZENITH EPIGENETICS LTD., priority 2013, dated 2019)
# Target: T1, Brd4 bromodomain 1 (BRD4(1)) (Homo sapiens, UniProt O60885)
# T1 construct: made in house; host or cells: E. coli BL21(DE3)
# Test: Inhibition of tetra-acetylated histone H4 binding to Brd4 bromodomain 1 (TR-FRET)
# Conditions: tetra-acetylated histone H4 peptide, first bromodomain of Brd4
# Experimental: Proteins were cloned and overexpressed with a N-terminal 6× His tag, then purified by nickel affinity followed by size exclusion chromatography. Briefly, E.coli BL21(DE3) cells were transformed with a recombinant expression vector encoding N-terminally Nickel affinity tagged bromodomains from Brd2, Brd3, Brd4. Cell cultures were incubated at 37° C. with shaking to the appropriate density and induced overnight with IPTG. The supernatant of lysed cells was loaded onto Ni-IDA column for purification. Eluted protein was pooled, concentrated and further purified by size exclusion chromatography. Fractions representing monomeric protein were pooled, concentrated, aliquoted, and frozen at −80° C. for use in subsequent experiments.
# Binding of tetra-acetylated histone H4 and BET bromodomains was confirmed by a Time Resolved Fluorescence Resonance Energy Transfer (TR-FRET) method. N-terminally His-tagged bromodomains (200 nM) and biotinylated tetra-acetylated histone H4 peptide (25-50 nM, Millipore) were incubated in the presence of Europium Cryptate-labeled streptavidin (Cisbio Cat. #610SAKLB) and XL665-labeled monoclonal anti-His antibody (Cisbio Cat. #61HISXLB) in a white 96 well microtiter plate (Greiner). For inhibition assays, serially diluted test compound was added to these reactions in a 0.2% final concentration of DMSO. Final buffer concentrations were 30 mM HEPES pH 7.4, 30 mM NaCl, 0.3 mM CHAPS, 20 mM phosphate pH 7.0, 320 mM KF, 0.08% BSA). After a 2-h incubation at room temperature, the fluorescence by FRET was measured at 665 and 620 nm by a SynergyH4 plate reader (Biotek). The binding inhibitory activity was shown by a decrease in 665 nm fluorescence relative to 620 nm. IC50 values were determined from a dose response curve.
row,SMILES,IC50 [nM]
1,"COC(=O)c1cc(-c2c(C)noc2C)cc2c1[nH]c(=O)n2Cc1ccccc1 [Example Compound 20, methyl 1-benzyl-6-(3,5-dimethylisoxazol-4-yl)-2-oxo-2,3-dihydro-1H-benzo[d]imidazole-4-carboxylate]",≤ 300
2,"Cc1noc(C)c1-c1cc2c([nH]c1=O)c(C)nn2Cc1ccc(F)cc1 [Example Compound 25, 6-(3,5-dimethylisoxazol-4-yl)-1-(4-fluorobenzyl)-3-methyl-1H-pyrazolo[4,3-b]pyridin-5(4H)-one]",3000 to 30000
3,"Cc1noc(C)c1-c1cnc2ncn(Cc3ccccn3)c2c1 [Example Compound 47, 3,5-dimethyl-4-(1-(pyridin-2-ylmethyl)-1H-imidazo[4,5-b]pyridin-6-yl)isoxazole]",3000 to 30000
4,"Cc1noc(C)c1-c1cnc2[nH]c(=O)n(Cc3ccc(Cl)c(Cl)c3)c2c1 [compound 101, 1-(3,4-dichlorobenzyl)-6-(3,5-dimethylisoxazol-4-yl)-1H-imidazo[4,5-b]pyridin-2(3H)-one]",300 to 3000
5,"Cc1noc(C)c1-c1cc([N+](=O)[O-])c2nc(NCc3ccccc3)n(Cc3ccccc3)c2c1 [compound 147, N,1-dibenzyl-6-(3,5-dimethylisoxazol-4-yl)-4-nitro-1H-benzo[d]imidazol-2-amine]",≤ 300
6,"Cn1nccc1-c1ccc2c(c1)N(Cc1ccccc1)CC(=O)N2 [compound 166, 4-benzyl-6-(1-methyl-1H-pyrazol-5-yl)-3,4-dihydroquinoxalin-2(1H)-one]",300 to 3000
7,"Cn1nccc1-c1cnc2nc(N3CCOCC3)n(Cc3ccccc3)c2c1 [compound 175, 4-(1-benzyl-6-(1-methyl-1H-pyrazol-5-yl)-1H-imidazo[4,5-b]pyridin-2-yl)morpholine]",300 to 3000
8,"Cc1nn(C)c(C)c1-c1cc(N)c2nc(C)n(Cc3ccccc3)c2c1 [compound 184, 1-benzyl-2-methyl-6-(1,3,5-trimethyl-1H-pyrazol-4-yl)-1H-benzo[d]imidazol-4-amine]",3000 to 30000
9,"Cc1noc(C)c1-c1cc(Br)c2nc(C)n(CCCc3ccccc3)c2c1 [compound 187, 4-(4-bromo-2-methyl-1-(3-phenylpropyl)-1H-benzo[d]imidazol-6-yl)-3,5-dimethylisoxazole]",300 to 3000
10,"Cc1noc(C)c1-c1cc(Br)c2c(c1)nc(C)n2CCCc1ccccc1 [compound 188, 4-(7-bromo-2-methyl-1-(3-phenylpropyl)-1H-benzo[d]imidazol-5-yl)-3,5-dimethylisoxazole]",3000 to 30000
11,"Cc1noc(C)c1-c1cc(Br)c2nc(C)n(CCOc3ccccc3)c2c1 [compound 189, 4-(4-bromo-2-methyl-1-(2-phenoxyethyl)-1H-benzo[d]imidazol-6-yl)-3,5-dimethylisoxazole]",300 to 3000
12,"Cc1noc(C)c1-c1cc(Br)c2c(c1)nc(C)n2CCOc1ccccc1 [compound 190, 4-(7-bromo-2-methyl-1-(2-phenoxyethyl)-1H-benzo[d]imidazol-5-yl)-3,5-dimethylisoxazole]",300 to 3000
13,"CC(=O)Nc1cc(-c2ccnn2C)cc2c1n(C)c(=O)n2Cc1ccccc1 [compound 204, N-(1-benzyl-3-methyl-6-(1-methyl-1H-pyrazol-5-yl)-2-oxo-2,3-dihydro-1H-benzo[d]imidazol-4-yl)acetamide]",300 to 3000
14,"Cc1noc(C)c1-c1cnc2nc(NC3CCC(N)CC3)n(Cc3ccccc3)c2c1 (centres unmarked) [compound 224, N1-(1-benzyl-6-(3,5-dimethylisoxazol-4-yl)-1H-imidazo[4,5-b]pyridin-2-yl)cyclohexane-1,4-diamine]",≤ 300
15,"Cc1noc(C)c1-c1cnc2nc(NCC3CCCCC3)n(Cc3ccccc3)c2c1 [compound 225, 1-benzyl-N-(cyclohexylmethyl)-6-(3,5-dimethylisoxazol-4-yl)-1H-imidazo[4,5-b]pyridin-2-amine]",≤ 300
16,"COCCCNc1nc2ncc(-c3c(C)noc3C)cc2n1Cc1ccccc1 [compound 226, 1-benzyl-6-(3,5-dimethylisoxazol-4-yl)-N-(3-methoxypropyl)-1H-imidazo[4,5-b]pyridin-2-amine]",≤ 300
17,"Cc1noc(C)c1-c1cnc2nc(NC3COC3)n(Cc3ccccc3)c2c1 [compound 227, 1-benzyl-6-(3,5-dimethylisoxazol-4-yl)-N-(oxetan-3-yl)-1H-imidazo[4,5-b]pyridin-2-amine]",≤ 300
18,"Cc1noc(C)c1-c1cnc2[nH]c(=O)n(Cc3ccc(F)cc3)c2c1 [compound 228, 6-(3,5-dimethylisoxazol-4-yl)-1-(4-fluorobenzyl)-1H-imidazo[4,5-b]pyridin-2(3H)-one]",≤ 300

# The next lines start with the values.
row,IC50 [nM],SMILES
1,≤ 300,"Cc1noc(C)c1-c1cnc2nc(NCc3cnccn3)n(Cc3ccccc3)c2c1 [compound 229, 1-benzyl-6-(3,5-dimethylisoxazol-4-yl)-N-(pyrazin-2-ylmethyl)-1H-imidazo[4,5-b]pyridin-2-amine]"
2,≤ 300,"Cc1noc(C)c1-c1cnc2nc(NCC3CCOCC3)n(Cc3ccccc3)c2c1 [compound 230, 1-benzyl-6-(3,5-dimethylisoxazol-4-yl)-N-((tetrahydro-2H-pyran-4-yl)methyl)-1H-imidazo[4,5-b]pyridin-2-amine]"
3,≤ 300,"Cc1noc(C)c1-c1cnc2nc(NCCN3CCN(C)CC3)n(Cc3ccccc3)c2c1 [compound 231, 1-benzyl-6-(3,5-dimethylisoxazol-4-yl)-N-(2-(4-methylpiperazin-1-yl)ethyl)-1H-imidazo[4,5-b]pyridin-2-amine]"
4,≤ 300,"CNc1nc2ncc(-c3c(C)noc3C)cc2n1Cc1ccc(F)cc1 [compound 232, 6-(3,5-dimethylisoxazol-4-yl)-1-(4-fluorobenzyl)-N-methyl-1H-imidazo[4,5-b]pyridin-2-amine]"
5,≤ 300,"CNc1nc2ncc(-c3c(C)noc3C)cc2n1Cc1ccc(Cl)cc1 [compound 233, 1-(4-chlorobenzyl)-6-(3,5-dimethylisoxazol-4-yl)-N-methyl-1H-imidazo[4,5-b]pyridin-2-amine]"
6,≤ 300,"Cc1noc(C)c1-c1cnc2nc(NC3CCCCC3)n(Cc3ccccc3)c2c1 [compound 234, 1-benzyl-N-cyclohexyl-6-(3,5-dimethylisoxazol-4-yl)-1H-imidazo[4,5-b]pyridin-2-amine]"
7,≤ 300,"Cc1noc(C)c1-c1cnc2nc(NC3CCN(C)CC3)n(Cc3ccccc3)c2c1 [compound 235, 1-benzyl-6-(3,5-dimethylisoxazol-4-yl)-N-(1-methylpiperidin-4-yl)-1H-imidazo[4,5-b]pyridin-2-amine]"
8,≤ 300,"Cc1noc(C)c1-c1cnc2nc(Oc3cccnc3)n(Cc3ccccc3)c2c1 [compound 236, 4-(1-benzyl-2-(pyridin-3-yloxy)-1H-imidazo[4,5-b]pyridin-6-yl)-3,5-dimethylisoxazole]"
9,≤ 300,"Cc1noc(C)c1-c1cnc2nc(NCC(C)(C)O)n(Cc3ccccc3)c2c1 [compound 237, 1-((1-benzyl-6-(3,5-dimethylisoxazol-4-yl)-1H-imidazo[4,5-b]pyridin-2-yl)amino)-2-methylpropan-2-ol]"
10,≤ 300,"Cc1noc(C)c1-c1cnc2nc(NCCN3CCCC3)n(Cc3ccccc3)c2c1 [compound 238, 1-benzyl-6-(3,5-dimethylisoxazol-4-yl)-N-(2-(pyrrolidin-1-yl)ethyl)-1H-imidazo[4,5-b]pyridin-2-amine]"
11,≤ 300,"Cc1noc(C)c1-c1cnc2nc(NCCN3CCCCC3)n(Cc3ccccc3)c2c1 [compound 239, 1-benzyl-6-(3,5-dimethylisoxazol-4-yl)-N-(2-(piperidin-1-yl)ethyl)-1H-imidazo[4,5-b]pyridin-2-amine]"
12,≤ 300,"Cc1noc(C)c1-c1cc([N+](=O)[O-])c2[nH]c(=O)n([C@H](C)c3ccccc3)c2c1 [compound 240, (R)-6-(3,5-dimethylisoxazol-4-yl)-4-nitro-1-(1-phenylethyl)-1H-benzo[d]imidazol-2(3H)-one]"
13,300 to 3000,"COc1c(-c2c(C)noc2C)ccc2nc(C(F)(F)F)n(Cc3ccccc3)c12 [compound 241, 4-(1-benzyl-7-methoxy-2-(trifluoromethyl)-1H-benzo[d]imidazol-6-yl)-3,5-dimethylisoxazole]"

# Test system: human AML MV-4-11 cells
# Test: Inhibition of cell proliferation in MV4-11 cells (CellTiter Aqueous One)
# Type: cell-based
# Conditions: 72 h
# Experimental: MV4-11 cells: 96-well plates were seeded with 5×10^4 cells per well of exponentially growing human AML MV-4-11 (CRL-9591) cells and immediately treated with two-fold dilutions of test compounds, ranging from 30 μM to 0.2 μM. Triplicate wells were used for each concentration, as well as a media only and three DMSO control wells. The cells and compounds were incubated at 37° C., 5% CO2 for 72 h before adding 20 μL of the CellTiter Aqueous One Solution (Promega) to each well and incubating at 37° C., 5% CO2 for an additional 3-4 h. The absorbance was taken at 490 nm in a spectrophotometer and the percentage of proliferation relative to DMSO-treated cells was calculated after correction from the blank well. IC50 were calculated using the GraphPad Prism software.
row,SMILES,Cell Proliferation activity
1,"COC(=O)c1cc(-c2c(C)noc2C)cc2c1[nH]c(=O)n2Cc1ccccc1 [Example Compound 20, methyl 1-benzyl-6-(3,5-dimethylisoxazol-4-yl)-2-oxo-2,3-dihydro-1H-benzo[d]imidazole-4-carboxylate]",Not active
2,"Cc1noc(C)c1-c1cc2c([nH]c1=O)c(C)nn2Cc1ccc(F)cc1 [Example Compound 25, 6-(3,5-dimethylisoxazol-4-yl)-1-(4-fluorobenzyl)-3-methyl-1H-pyrazolo[4,3-b]pyridin-5(4H)-one]",Not active
3,"Cc1noc(C)c1-c1cnc2ncn(Cc3ccccn3)c2c1 [Example Compound 47, 3,5-dimethyl-4-(1-(pyridin-2-ylmethyl)-1H-imidazo[4,5-b]pyridin-6-yl)isoxazole]",Not active
4,"Cc1noc(C)c1-c1cc2c(ncn2Cc2ccc(F)cc2)[n+]([O-])c1 [compound 79, 6-(3,5-dimethylisoxazol-4-yl)-1-(4-fluorobenzyl)-1H-imidazo[4,5-b]pyridine 4-oxide]",Not active
